Source: paper PMC8963254, “Effects of Lysine N-ζ-Methylation in Ultrashort Tetrabasic Lipopeptides (UTBLPs) on the Potentiation of Rifampicin, Novobiocin, and Niclosamide in Gram-Negative Bacteria” (Antibiotics, 2022)
Converted amounts (≈) assume the structure as drawn. Where two headings read alike, the source gives them in different places. Non-standard residues stand in square brackets, D forms with d. Residues, ends and D or L forms follow the SMILES beside them. *: point of attachment. Lys(Me) = CNCCCC[C@H](N)C(=O)O; Octanoyl = CCCCCCCC(=O)*

Assays:
[1] = test system: MRSA ATCC 33592; assay type: cell-based, Staphylococcus aureus; details: ATCC 33592, 18 h
Experimental: (§1) The in vitro antibacterial activity of the UTBLPs was assessed against wild-type and clinically isolated bacterial strains. To obtain the MIC of the compounds, the microbroth dilution susceptibility assay was performed according to the Clinical and Laboratory Standards Institute (CLSI, Wayne, PA, USA) guidelines and as previously described. Briefly, the compounds at varying concentrations were incubated with bacterial inoculum (5 × 10^5 CFU/mL final concentration) at 37 °C for 18 h. Growth in the form of turbidity was confirmed using an EMax Plus microplate reader (Molecular Devices, San Jose, CA, USA) at 590 nm.

[2] = test system: S. aureus ATCC 29213; assay type: cell-based, Staphylococcus aureus; details: ATCC 29213, 18 h
Experimental: as §1

[3] = test system: E. faecalis ATCC 29212; assay type: cell-based, Enterococcus faecalis; details: ATCC 29212, 18 h
Experimental: as §1

[4] = test system: P. aeruginosa PA259-96196; assay: microbe, parasite or virus in culture; assay type: cell-based, Pseudomonas aeruginosa; details: PA259-96196, 18 h
Procedure, shortened: (§2)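 MIC was determined by broth microdilution following CLSI guidelines. Serially varied compound concentrations were incubated with bacterial inoculum at 5 × 10^5 CFU/mL (final) for 18 h at 37 °C. Growth was scored as turbidity by absorbance at 590 nm.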

[5] = test system: P. aeruginosa PA262-101856; assay: microbe, parasite or virus in culture; assay type: cell-based, Pseudomonas aeruginosa; details: PA262-101856, 18 h
Procedure, shortened: as §2

[6] = test system: E. coli 94393; assay: microbe, parasite or virus in culture; assay type: cell-based, Escherichia coli; details: 94393, 18 h
Procedure, shortened: as §2

[7] = test system: E. coli 94474; assay: microbe, parasite or virus in culture; assay type: cell-based, Escherichia coli; details: 94474, 18 h
Procedure, shortened: as §2

[8] = test system: P. aeruginosa PA259-96196; assay type: cell-based, Pseudomonas aeruginosa; details: for MICUTBLP: UTBLP alone
Procedure, shortened: (§3)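 Values derive from a two-agent checkerboard with an 18 h, 37 °C incubation. FICI cut-offs: ≤0.5 synergy, 0.5–4 additive, >4 antagonism.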

[9] = test system: P. aeruginosa PA262-101856; assay type: cell-based, Pseudomonas aeruginosa; details: for MICUTBLP: UTBLP alone
Procedure, shortened: as §3

[10] = test system: P. aeruginosa PAO1; assay type: cell-based, Pseudomonas aeruginosa; details: for MICUTBLP: UTBLP alone
Procedure, shortened: as §3

[11] = test system: E. coli 94393; assay type: cell-based, Escherichia coli; details: for MICUTBLP: UTBLP alone
Procedure, shortened: as §3

[12] = test system: E. coli 94474; assay type: cell-based, Escherichia coli; details: for MICUTBLP: UTBLP alone
Procedure, shortened: as §3

[13] = test system: E. coli ATCC 25922; assay type: cell-based, Escherichia coli; details: for MICUTBLP: UTBLP alone
Procedure, shortened: as §3

[14] = test system: E. faecium ATCC 27270; assay type: cell-based, Enterococcus faecium
Procedure, shortened: as §3

[15] = UTBLP in combination with novobiocin
[16] = UTBLP in combination with rifampicin
[17] = novobiocin in combination with the UTBLP
[18] = rifampicin in combination with the UTBLP
[19] = UTBLP in combination with chloramphenicol
[20] = UTBLP in combination with niclosamide
[21] = chloramphenicol in combination with the UTBLP
[22] = niclosamide in combination with the UTBLP

MIC [1]: >128 µg/mL
MIC [2]: 128 µg/mL (≈ 132 µM)
MIC [3]: 32 µg/mL (≈ 33.1 µM)
MIC [4]: > 128 µg/mL
MIC [5]: > 128 µg/mL
MIC [6]: 64 µg/mL (≈ 66.2 µM)
MIC [7]: > 128 µg/mL
MICUTBLP ([8]; plate with novobiocin): > 128 µg/mL
MICUTBLP ([8]; plate with rifampicin): > 128 µg/mL
MICUTBLP [MICcombo] [8, 15]: 16 µg/mL
MICUTBLP [MICcombo] [8, 16]: 16 µg/mL
MICantibiotic [MICcombo] [8, 17]: 128 µg/mL
MICantibiotic [MICcombo] [8, 18]: 2 µg/mL
MICUTBLP ([9]; plate with novobiocin): > 128 µg/mL
MICUTBLP ([9]; plate with rifampicin): > 128 µg/mL
MICUTBLP [MICcombo] [9, 15]: 16 µg/mL
MICUTBLP [MICcombo] [9, 16]: 16 µg/mL
MICantibiotic [MICcombo] [9, 17]: 128 µg/mL
MICantibiotic [MICcombo] [9, 18]: 256 µg/mL
MICUTBLP ([10]; plate with chloramphenicol): > 128 µg/mL
MICUTBLP ([10]; plate with niclosamide): > 128 µg/mL
MICUTBLP ([10]; plate with novobiocin): > 128 µg/mL
MICUTBLP ([10]; plate with rifampicin): > 128 µg/mL
MICUTBLP [MICcombo] [10, 19]: 16 µg/mL
MICUTBLP [MICcombo] [10, 20]: 16 µg/mL
MICUTBLP [MICcombo] [10, 15]: 16 µg/mL
MICUTBLP [MICcombo] [10, 16]: 16 µg/mL
MICantibiotic [MICcombo] [10, 21]: 2 µg/mL
MICantibiotic [MICcombo] [10, 22]: 2 µg/mL
MICantibiotic [MICcombo] [10, 17]: 32 µg/mL
MICantibiotic [MICcombo] [10, 18]: 1 µg/mL
MICUTBLP ([11]; plate with novobiocin): 64 µg/mL
MICUTBLP ([11]; plate with rifampicin): 64 µg/mL
MICUTBLP [MICcombo] [11, 15]: 4 µg/mL
MICUTBLP [MICcombo] [11, 16]: 4 µg/mL
MICantibiotic [MICcombo] [11, 17]: 1 µg/mL
MICantibiotic [MICcombo] [11, 18]: 0.25 µg/mL
MICUTBLP ([12]; plate with novobiocin): > 128 µg/mL
MICUTBLP ([12]; plate with rifampicin): > 128 µg/mL
MICUTBLP [MICcombo] [12, 15]: 16 µg/mL
MICUTBLP [MICcombo] [12, 16]: 16 µg/mL
MICantibiotic [MICcombo] [12, 17]: 1 µg/mL
MICantibiotic [MICcombo] [12, 18]: 0.125 µg/mL
MICUTBLP ([13]; plate with chloramphenicol): 32 µg/mL
MICUTBLP ([13]; plate with niclosamide): 32 µg/mL
MICUTBLP ([13]; plate with novobiocin): 32 µg/mL
MICUTBLP ([13]; plate with rifampicin): 32 µg/mL
MICUTBLP [MICcombo] [13, 19]: 8 µg/mL
MICUTBLP [MICcombo] [13, 20]: 1 µg/mL
MICUTBLP [MICcombo] [13, 15]: 2 µg/mL
MICUTBLP [MICcombo] [13, 16]: 4 µg/mL
MICantibiotic [MICcombo] [13, 21]: 2 µg/mL
MICantibiotic [MICcombo] [13, 22]: 2 µg/mL
MICantibiotic [MICcombo] [13, 17]: 0.5 µg/mL
MICantibiotic [MICcombo] [13, 18]: 0.063 µg/mL
MICUTBLP ([14]; UTBLP alone, plate with chloramphenicol): 64 µg/mL
MICUTBLP [MICcombo] [14, 19]: 4 µg/mL
MICchloramphenicol [MICcombo] [14, 21]: 4 µg/mL
SMILES: CCCCCCCC(=O)NCCCC[C@H](NC(=O)CCCCCCC)C(=O)N[C@@H](CCCCNC)C(=O)N[C@@H](CCCCNC)C(=O)N[C@@H](CCCCNC)C(=O)N[C@@H](CCCCNC)C(N)=O [UTBLP 6] (Octanoyl-K(Octanoyl)[Lys(Me)][Lys(Me)][Lys(Me)][Lys(Me)]-NH2)
Interpretation ([8]; UTBLP + novobiocin): Synergy (FICI ≤ 0.5 is synergistic)
Interpretation ([8]; UTBLP + rifampicin): Synergy (FICI ≤ 0.5 is synergistic)
Interpretation ([9]; UTBLP + novobiocin): Synergy (FICI ≤ 0.5 is synergistic)
Interpretation ([9]; UTBLP + rifampicin): Additive (0.5 < x ≤ 4 is additive)
Interpretation ([10]; UTBLP + chloramphenicol): Synergy (FICI ≤ 0.5 is synergistic)
Interpretation ([10]; UTBLP + niclosamide): Synergy (FICI ≤ 0.5 is synergistic)
Interpretation ([10]; UTBLP + novobiocin): Synergy (FICI ≤ 0.5 is synergistic)
Interpretation ([10]; UTBLP + rifampicin): Synergy (FICI ≤ 0.5 is synergistic)
Interpretation ([11]; UTBLP + novobiocin): Synergy (FICI ≤ 0.5 is synergistic)
Interpretation ([11]; UTBLP + rifampicin): Synergy (FICI ≤ 0.5 is synergistic)
Interpretation ([12]; UTBLP + novobiocin): Synergy (FICI ≤ 0.5 is synergistic)
Interpretation ([12]; UTBLP + rifampicin): Synergy (FICI ≤ 0.5 is synergistic)
Interpretation ([13]; UTBLP + chloramphenicol): Synergy (FICI ≤ 0.5 is synergistic)
Interpretation ([13]; UTBLP + niclosamide): Synergy (FICI ≤ 0.5 is synergistic)
Interpretation ([13]; UTBLP + novobiocin): Synergy (FICI ≤ 0.5 is synergistic)
Interpretation ([13]; UTBLP + rifampicin): Synergy (FICI ≤ 0.5 is synergistic)
Interpretation ([14]; UTBLP + chloramphenicol): Additive (0.5 < x ≤ 4 is additive)
